Test results: patent US11814391B2, “Macrocyclic compounds for the treatment of medical disorders” (Achillion Pharmaceuticals, Inc., priority 2018, dated 2023)
Read-outs that look alike come from different tables or passages of the source.

How the values were obtained:
[1] = rcm bond, Grubbs II, toluene, 80.0 °C
Human Factor D = Human Factor D (Homo sapiens (Human), UniProt P00746); experiment: Human Factor D assay; assay type: biochemical; conditions: Human Factor D 80 nM, substrate Z-L-Lys-SBzl, A405; read-out: IC50 (Stars)
Procedure, shortened: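 Serum-purified human Factor D (80 nM final) preincubated 5 min at room temperature with compound in 50 mM Tris, 1M NaCl, pH 7.5. Reaction started with Z-L-Lys-SBzI and DTNB (100 μM each); A405 read every 30 s for 30 min. IC50 from nonlinear regression of reaction rates versus compound concentration.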

Sequence of Human Factor D (P00746 26-253): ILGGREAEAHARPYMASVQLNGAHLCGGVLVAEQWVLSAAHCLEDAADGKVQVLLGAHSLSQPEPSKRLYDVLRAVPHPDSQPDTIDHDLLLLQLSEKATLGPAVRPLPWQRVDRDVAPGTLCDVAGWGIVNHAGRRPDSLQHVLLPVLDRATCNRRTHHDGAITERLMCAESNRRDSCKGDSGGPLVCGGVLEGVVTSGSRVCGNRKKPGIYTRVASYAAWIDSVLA

## C=C(C)c1cc2c3c(c1)c(C(C)=O)nn3CC(=O)N1[C@H](C(=O)Nc3nc(C(F)(F)F)ccc3C)C[C@@]3(CNC(=O)CCCC=CC2)C[C@@H]13
[1]; from C=CCCCC(=O)NC[C@@]12C[C@@H](C(=O)Nc3nc(C(F)(F)F)ccc3C)N(C(=O)Cn3nc(C(C)=O)c4cc(C(=C)C)cc(CC=C)c43)[C@@H]1C2, 17-membered ring, 1.43 mM, 16.0 h
  ring closure, isolated yield: 21.7%

## CC(=O)c1nn2c3c(cc(-c4cnc(C)nc4)cc13)CC=CCCC(C)(C)C(=O)NC[C@@]13C[C@@H](C(=O)Nc4nc(C(F)(F)F)ccc4C)N(C(=O)C2)[C@@H]1C3
[1]; from C=CCCC(C)(C)C(=O)NC[C@@]12C[C@@H](C(=O)Nc3nc(C(F)(F)F)ccc3C)N(C(=O)Cn3nc(C(C)=O)c4cc(-c5cnc(C)nc5)cc(CC=C)c43)[C@@H]1C2, 17-membered ring, 1.6 mM, 16.0 h
  ring closure, isolated yield: 71.3%

## CC(=O)c1nn2c3c(cc(-c4cnc(C)nc4)cc13)CC=CCCCC(=O)N(C)C[C@@]13C[C@@H](C(=O)Nc4cc(F)cc(Br)n4)N(C(=O)C2)[C@@H]1C3
[1]; from C=CCCCC(=O)N(C)C[C@@]12C[C@@H](C(=O)Nc3cc(F)cc(Br)n3)N(C(=O)Cn3nc(C(C)=O)c4cc(-c5cnc(C)nc5)cc(CC=C)c43)[C@@H]1C2, 17-membered ring, 1.29 mM, 16.0 h
  ring closure, isolated yield: 94.5%

## CC(=O)c1nn2c3c(cc(-c4cnc(C)nc4)cc13)CC=CCCCCN(C(=O)OC(C)(C)C)C[C@@]13C[C@@H](C(=O)Nc4nc(C(F)(F)F)ccc4C)N(C(=O)C2)[C@@H]1C3
[1]; from C=CCCCCN(C[C@@]12C[C@@H](C(=O)Nc3nc(C(F)(F)F)ccc3C)N(C(=O)Cn3nc(C(C)=O)c4cc(-c5cnc(C)nc5)cc(CC=C)c43)[C@@H]1C2)C(=O)OC(C)(C)C, 17-membered ring, 1.2 mM
  ring closure, isolated yield: 60.4%

## CC(=O)c1nn2c3c(cc(-c4cnc(C)nc4)cc13)CCCCCCC=CCCN([C@@H](C)C(=O)Nc1nc(Br)ccc1C)C(=O)C2
[1]; from C=CCCCCCCc1cc(-c2cnc(C)nc2)cc2c(C(C)=O)nn(CC(=O)N(CCC=C)[C@@H](C)C(=O)Nc3nc(Br)ccc3C)c12, 16-membered ring, 1.33 mM, 16.0 h
  ring closure, isolated yield: 88.9%

## CC(=O)c1nn2c3c(cc(-c4cnc(C)nc4)cc13)CCCCCCC=CCc1ccc(Br)nc1NC(=O)[C@H](C)N(C)C(=O)C2
[1]; from C=CCCCCCCc1cc(-c2cnc(C)nc2)cc2c(C(C)=O)nn(CC(=O)N(C)[C@@H](C)C(=O)Nc3nc(Br)ccc3CC=C)c12, 20-membered ring, 1.4 mM, 16.0 h
  ring closure, isolated yield: 63.8%

## CC(=O)c1nn2c3c(cc(-c4cnc(C)nc4)cc13)N(C(=O)OCc1ccccc1)CC=CCCC(=O)NCC13CC(C(=O)Nc4nc(C(F)(F)F)ccc4C)N(C(=O)C2)C1C3 (stereo not shown)
[1]; from C=CCCC(=O)NCC12CC(C(=O)Nc3nc(C(F)(F)F)ccc3C)N(C(=O)Cn3nc(C(C)=O)c4cc(-c5cnc(C)nc5)cc(N(CC=C)C(=O)OCc5ccccc5)c43)C1C2, 17-membered ring, 1.42 mM
  ring closure, isolated yield: 57.2%

## CC(=O)c1nn2c3c(cc(-c4cnc(C)nc4)cc13)NC(=O)CCC=CCOCC13CC(C(=O)Nc4nc(C(F)(F)F)ccc4C)N(C(=O)C2)C1C3 (stereo not shown)
[1]; from C=CCCC(=O)Nc1cc(-c2cnc(C)nc2)cc2c(C(C)=O)nn(CC(=O)N3C(C(=O)Nc4nc(C(F)(F)F)ccc4C)CC4(COCC=C)CC34)c12, 17-membered ring, 1.35 mM
  ring closure, isolated yield: 65.8%

## CC(=O)c1nn2c3c(cc(-c4nnc(C)o4)cc13)CC=CCCCC(=O)NC[C@@]13C[C@@H](C(=O)Nc4nc(C(F)(F)F)ccc4C)N(C(=O)C2)[C@@H]1C3
[1]; from C=CCCCC(=O)NC[C@@]12C[C@@H](C(=O)Nc3nc(C(F)(F)F)ccc3C)N(C(=O)Cn3nc(C(C)=O)c4cc(-c5nnc(C)o5)cc(CC=C)c43)[C@@H]1C2, 17-membered ring, 1.36 mM, 16.0 h
  ring closure, isolated yield: 83.2%

## CC(=O)c1nn2c3c(cc(C)cc13)CC=CCCCC(=O)NC[C@@]13C[C@@H](C(=O)Nc4nc(C(F)(F)F)ccc4C)N(C(=O)C2)[C@@H]1C3
[1]; from C=CCCCC(=O)NC[C@@]12C[C@@H](C(=O)Nc3nc(C(F)(F)F)ccc3C)N(C(=O)Cn3nc(C(C)=O)c4cc(C)cc(CC=C)c43)[C@@H]1C2, 17-membered ring, 1.77 mM, 16.0 h
  ring closure, isolated yield: 86.7%
[1]; from C=CCCCC(=O)NC[C@@]12C[C@@H](C(=O)Nc3nc(C(F)(F)F)ccc3C)N(C(=O)Cn3nc(C(C)=O)c4cc(C)cc(CC=C)c43)[C@@H]1C2, 17-membered ring, 1.88 mM, 12.0 h
  ring closure, isolated yield: 62.6%

## CC(=O)c1nn2c3c(cc(C=C(C)C)cc13)CC=CCCCC(=O)NC[C@@]13C[C@@H](C(=O)Nc4nc(C(F)(F)F)ccc4C)N(C(=O)C2)[C@@H]1C3
[1]; from C=CCCCC(=O)NC[C@@]12C[C@@H](C(=O)Nc3nc(C(F)(F)F)ccc3C)N(C(=O)Cn3nc(C(C)=O)c4cc(C=C(C)C)cc(CC=C)c43)[C@@H]1C2, 17-membered ring, 1.67 mM, 16.0 h
  ring closure, isolated yield: 69.4%

## CC(=O)c1nn2c3c(cc(CCC(C)C)cc13)CC=CCCCC(=O)NC[C@@]13C[C@@H](C(=O)Nc4nc(C(F)(F)F)ccc4C)N(C(=O)C2)[C@@H]1C3
[1]; from C=CCCCC(=O)NC[C@@]12C[C@@H](C(=O)Nc3nc(C(F)(F)F)ccc3C)N(C(=O)Cn3nc(C(C)=O)c4cc(CCC(C)C)cc(CC=C)c43)[C@@H]1C2, 17-membered ring, 1.38 mM, 16.0 h
  ring closure, isolated yield: 27.7%

## CC(=O)c1nn2c3c(cc(N4CCCC4)cc13)CC=CCCCC(=O)NC[C@@]13C[C@@H](C(=O)Nc4nc(C(F)(F)F)ccc4C)N(C(=O)C2)[C@@H]1C3
[1]; from C=CCCCC(=O)NC[C@@]12C[C@@H](C(=O)Nc3nc(C(F)(F)F)ccc3C)N(C(=O)Cn3nc(C(C)=O)c4cc(N5CCCC5)cc(CC=C)c43)[C@@H]1C2, 17-membered ring, 2.0 mM, 16.0 h
  ring closure, isolated yield: 92.5%

## CC(=O)c1nn2c3c(cc(NC(=O)OC(C)(C)C)cc13)CC=CCCCC(=O)NC[C@@]13C[C@@H](C(=O)Nc4nc(C(F)(F)F)ccc4C)N(C(=O)C2)[C@@H]1C3
[1]; from C=CCCCC(=O)NC[C@@]12C[C@@H](C(=O)Nc3nc(C(F)(F)F)ccc3C)N(C(=O)Cn3nc(C(C)=O)c4cc(NC(=O)OC(C)(C)C)cc(CC=C)c43)[C@@H]1C2, 17-membered ring, 1.3 mM, 16.0 h
  ring closure, isolated yield: 78.9%

## CC(=O)c1nn2c3c(cc(OCC(C)C)cc13)CC=CCCCC(=O)NC[C@@]13C[C@@H](C(=O)Nc4nc(C(F)(F)F)ccc4C)N(C(=O)C2)[C@@H]1C3
[1]; from C=CCCCC(=O)NC[C@@]12C[C@@H](C(=O)Nc3nc(C(F)(F)F)ccc3C)N(C(=O)Cn3nc(C(C)=O)c4cc(OCC(C)C)cc(CC=C)c43)[C@@H]1C2, 17-membered ring, 1.71 mM, 16.0 h
  ring closure, isolated yield: 92%

## CC(=O)c1nn2c3c(cc(Oc4ncc(C)cn4)cc13)CC=CCCCC(=O)NC[C@@]13C[C@@H](C(=O)Nc4nc(C(F)(F)F)ccc4C)N(C(=O)C2)[C@@H]1C3
[1]; from C=CCCCC(=O)NC[C@@]12C[C@@H](C(=O)Nc3nc(C(F)(F)F)ccc3C)N(C(=O)Cn3nc(C(C)=O)c4cc(Oc5ncc(C)cn5)cc(CC=C)c43)[C@@H]1C2, 17-membered ring, 1.5 mM
  ring closure, isolated yield: 61.5%

## CN(C(=O)OCc1ccccc1)[C@H]1CC=CCCCCCCc2ccc(Br)nc2NC1=O
[1]; from C=CCCCCCCc1ccc(Br)nc1NC(=O)[C@H](CC=C)N(C)C(=O)OCc1ccccc1, 14-membered ring, 1.85 mM, 16.0 h
  ring closure, isolated yield: 79.6%

## CC(=O)c1nn2c3c(cc(-c4cnc(C)nc4)cc13)CCCCCC(C)(C)CNC[C@@]13C[C@@H](C(=O)NC4CC(C)(C)C4)N(C(=O)C2)[C@@H]1C3 [Compound 61, (41R,43S,45R)-13-acetyl-N-(3,3-dimethylcyclobutyl)-8,8-dimethyl-15-(2-methylpyrimidin-5-yl)-3-oxo-11H-42,6-diaza-1(1,7)-indazola-4(2,5)-bicyclo[3.1.0]hexanacyclotridecaphane-43-carboxamide]
Human Factor D
  IC50: < 1000 nM
